In paper PMC3434127, “Insights into Phosphate Cooperativity and Influence of Substrate Modifications on Binding and Catalysis of Hexameric Purine Nucleoside Phosphorylases” (PLoS ONE, 2012):

Target: T1, BsPNP233 (Bacillus subtilis, UniProt O34925)
T1 construct: gene deoD; full length, 233 residues, N-terminal His-tag kept (eight tag residues seen in one crystal form), recombinant from E. coli, homohexamer (D3); active site at dimer interface
T1 sequence (O34925 1-233): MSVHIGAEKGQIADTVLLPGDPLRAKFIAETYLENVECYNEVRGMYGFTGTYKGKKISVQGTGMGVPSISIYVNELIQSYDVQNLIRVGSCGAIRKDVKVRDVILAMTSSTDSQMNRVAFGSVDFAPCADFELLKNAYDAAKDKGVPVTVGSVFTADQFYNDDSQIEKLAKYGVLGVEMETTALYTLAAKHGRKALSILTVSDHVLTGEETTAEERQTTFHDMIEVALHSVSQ
Test: X-ray crystal structure (soaked crystal)
Format: binding

[1] = crystals grown in 0.1 M sodium acetate pH 4.6, 3.2 M NaCl, 5% glycerol, 291 K, nucleoside site

## Nc1nc2c(ncn2COCCO)c(=O)[nH]1 [ACV, aciclovir]
Crystals grown in 0.1 M sodium acetate pH 4.6, 3.2 M NaCl, 5% glycerol, 291 K, nucleoside site, two conformations of the acyclic chain, half-occupancy phosphate modelled
  X-ray crystal structure (soaked crystal): Aciclovir binds to the BsPNP233 nucleoside binding site

## Nc1ncnc2[nH]cnc12 [Ade, adenine]
purine-binding site, solved without (4DAO) and with sulfate (form I, 4D8V)
  X-ray crystal structure (soaked crystal): The BsPNP233-Ade binary complex was solved with (BsPNP233-Ade-SO4) or without (BsPNP233-Ade) sulfate ion

## Nc1ncnc2c1ncn2[C@@H]1O[C@H](CO)[C@@H](O)[C@H]1O [Ado, adenosine]
[1]
  X-ray crystal structure (soaked crystal): The base moiety of adenosine (Ado) binds to the BsPNP233 active site

## Nc1nc2c(nc(Br)n2[C@@H]2O[C@H](CO)[C@@H](O)[C@H]2O)c(=O)[nH]1 [Br-Guo, 8-bromoguanosine]
[1]
  X-ray crystal structure (soaked crystal): The ribosyl moiety of Br-Guo presents a typical C4′–endo conformation and binds to the active site

## Nc1nc(Cl)c2ncn([C@@H]3O[C@H](CO)[C@@H](O)[C@H]3O)c2n1 [Cl-Guo, 6-chloroguanosine]
[1]
  X-ray crystal structure (soaked crystal): The molecule Cl-Guo displays a similar binding mode to that observed for dGuo

## Nc1nc(F)nc2c1ncn2[C@@H]1O[C@H](CO)[C@@H](O)[C@H]1O [F-Ado, 2-fluoradenosine]
[1]
  X-ray crystal structure (soaked crystal): The crystal structure of BsPNP233-(F-Ado) complex had two BsPNP233 subunits per asymmetric unit

## Nc1nc2c(ncn2COC(CO)CO)c(=O)[nH]1 [GCV, ganciclovir]
[1]
  X-ray crystal structure (soaked crystal): GCV binds to the nucleoside binding site of BsPNP233

## O=c1[nH]cnc2nc[nH]c12 [Hyp, hypoxanthine]
Crystals grown in 0.1 M sodium acetate pH 4.6, 3.2 M NaCl, 5% glycerol, 291 K, purine-binding site, glycerol in ribose site
  X-ray crystal structure (soaked crystal): crystal structures of BsPNP233 in complex with hypoxanthine (Hyp) and adenine (Ade)

## Nc1ncnc2c1ccn2[C@@H]1O[C@H](CO)[C@@H](O)[C@H]1O [TBN, tubercidin]
[1]
  X-ray crystal structure (soaked crystal): TBN presented an interaction mode very similar to that seen for the natural substrate adenosine
